Measured values published in US20110301142A1, “ANTAGONISTS OF LYSOPHOSPHATIDIC ACID RECEPTORS” (priority 2008, published 2011).

Legend:
human LPA1 = target: T1, human LPA1 (Homo sapiens, UniProt Q92633); assay: LPA1 calcium flux assay (HLPA1 Ca Flux); type: cell-based; settings: Human LPA1 expressing CHO cells, stimulated with 10 nM LPA
T1 construct: the full-length cDNA for human LPA1 was obtained by PCR of the reverse transcription reaction; expressed in transfected cells
How it was run: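 Compounds were fitted for IC50 from inhibition of the intracellular calcium rise evoked by 10 nM LPA. Test system: dye-loaded CHO cells stably transfected with human LPA1, serum-free overnight, with 30 min compound pretreatment at room temperature before stimulation.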

human LPA3 = target: T2, human LPA3 (Homo sapiens, UniProt Q9UBY5); assay: LPA3 calcium flux assay; type: cell-based; settings: Human LPA3 expressing CHO cells, stimulated with 10 nM LPA; read-out: HLPA3 Ca Flux IC50
T2 construct: The full-length cDNA fragment for human LPA3 was obtained by PCR from the vector; expressed in transfected cells; cDNA from the Missouri S&T cDNA Resource Center
T2 sequence (Q9UBY5 1-353): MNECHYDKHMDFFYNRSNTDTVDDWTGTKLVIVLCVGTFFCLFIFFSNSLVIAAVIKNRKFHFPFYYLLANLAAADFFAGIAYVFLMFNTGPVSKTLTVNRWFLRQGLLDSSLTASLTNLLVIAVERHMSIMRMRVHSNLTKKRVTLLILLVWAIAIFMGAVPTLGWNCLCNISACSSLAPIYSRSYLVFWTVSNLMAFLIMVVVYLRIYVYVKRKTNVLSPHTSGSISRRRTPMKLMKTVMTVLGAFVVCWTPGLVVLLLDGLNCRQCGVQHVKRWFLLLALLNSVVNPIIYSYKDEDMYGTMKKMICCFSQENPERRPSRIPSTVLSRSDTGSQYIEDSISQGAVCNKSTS
How it was run: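 Stably transfected CHO cells, serum-starved overnight, loaded with Calcium 4 dye 1 h at 37 °C in HBSS/20 mM Hepes with 0.3% fatty-acid-free HSA. Compounds preincubated 30 min at room temperature, then cells stimulated with 10 nM LPA; intracellular Ca2+ read by fluorescence; IC50 from titration curves.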

T1 sequence (Q92633 whole entry): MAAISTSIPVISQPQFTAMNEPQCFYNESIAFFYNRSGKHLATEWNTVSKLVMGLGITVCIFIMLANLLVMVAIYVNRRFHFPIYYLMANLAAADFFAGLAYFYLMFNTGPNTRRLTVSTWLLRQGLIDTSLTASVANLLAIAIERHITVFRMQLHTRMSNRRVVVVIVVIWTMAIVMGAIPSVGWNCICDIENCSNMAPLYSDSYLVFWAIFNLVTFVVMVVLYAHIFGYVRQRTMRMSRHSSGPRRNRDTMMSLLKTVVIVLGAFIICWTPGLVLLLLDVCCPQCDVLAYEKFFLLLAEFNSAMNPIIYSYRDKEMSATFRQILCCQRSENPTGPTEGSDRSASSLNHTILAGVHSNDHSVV

Row | IC50 (human LPA1) [nM] | IC50 (human LPA3) [nM] | SMILES
1 | < 300 | 1000 to 50000 | Cc1noc(-c2ccc(-c3ccc(CC(=O)O)cc3)c(F)c2)c1NC(=O)O[C@H](C)c1ccccc1Cl [Compound 1-132, (4′-{4-[(R)-1-(2-Chloro-phenyl)-ethoxycarbonylamino]-3-methyl-isoxazol-5-yl}-2′-fluoro-biphenyl-4-yl)-acetic acid]
2 | < 300 | 300 to 1000 | Cc1noc(-c2ccc(-c3ccc(C(=O)O)cc3)cc2)c1NC(=O)O[C@H](C)c1ccccc1Cl [Compound 1-133, 4′-{4-[(R)-1-(2-Chloro-phenyl)-ethoxycarbonylamino]-3-methyl-isoxazol-5-yl}-biphenyl-4-carboxylic acid]
3 | < 300 | 1000 to 50000 | Cc1noc(-c2ccc(Oc3cccc(CC(=O)O)c3)cc2)c1NC(=O)O[C@H](C)c1ccccc1Cl [Compound 1-137, [3-(4-{4-[(R)-1-(2-Chloro-phenyl)-ethoxycarbonylamino]-3-methyl-isoxazol-5-yl}-phenoxy)-phenyl]acetic acid]
4 | < 300 | 300 to 1000 | Cc1noc(-c2ccc(Oc3ccc(CC(=O)O)cc3)cc2)c1NC(=O)O[C@H](C)c1ccccc1Cl [Compound 1-138, [4-(4-{4-[(R)-1-(2-Chloro-phenyl)-ethoxycarbonylamino]-3-methyl-isoxazol-5-yl}-phenoxy)-phenyl]-acetic acid]
5 | < 300 | 1000 to 50000 | Cc1noc(-c2ccc(-c3ccc(C(O)C(=O)O)cc3)cc2)c1NC(=O)O[C@H](C)c1ccccc1F (stereo partly drawn) [Compound 1-139, (4′-{4-[(R)-1-(2-Fluoro-phenyl)-ethoxycarbonylamino]-3-methyl-isoxazol-5-yl}-biphenyl-4-yl)-hydroxy-acetic acid]
6 | < 300 | 1000 to 50000 | CCC(C(=O)O)c1ccc(-c2ccc(-c3onc(C)c3NC(=O)O[C@H](C)c3ccccc3)cn2)cc1 (stereo partly shown) [Compound 1-142]
7 | < 300 | 1000 to 50000 | Cc1noc(-c2ccc(-c3ccc(CC(=O)O)cc3)cc2)c1NC(=O)O[C@@H](C)c1ccccc1 [Compound 1-143, {4′-[3-Methyl-4-((S)-1-phenyl-ethoxycarbonylamino)-isoxazol-5-yl]-biphenyl-4-yl}-acetic acid]
8 | 1000 to 50000 | > 50000 | Cc1noc(-c2ccc(-c3ccc(CC(=O)O)cc3)cc2)c1NC(=O)O[C@H](C)c1cccc(O)c1 [Compound 1-144, (4′-{4-[(R)-1-(3-Hydroxy-phenyl)-ethoxycarbonylamino]-3-methyl-isoxazol-5-yl}-biphenyl-4-yl)-acetic acid]
9 | < 300 | 1000 to 50000 | Cc1noc(-c2ccc(-c3ccc(CC#N)cc3)cc2)c1NC(=O)O[C@H](C)c1ccccc1Cl [Compound 2-2, [5-(4′-Cyanomethyl-biphenyl-4-yl)-3-methyl-isoxazol-4-yl]-carbamic acid (R)-1-(2-chloro-phenyl)-ethyl ester]
10 | < 300 | > 50000 | Cc1noc(-c2ccc(-c3ccc(CC#N)cc3)cc2)c1NC(=O)O[C@H](C)c1ccccc1F [Compound 2-3, [5-(4′-Cyanomethyl-biphenyl-4-yl)-3-methyl-isoxazol-4-yl]-carbamic acid (R)-1-(2-fluoro-phenyl)-ethyl ester]
11 | < 300 | 1000 to 50000 | Cc1noc(-c2ccc(-c3ccc(Cc4nn[nH]n4)cc3)cc2)c1NC(=O)O[C@H](C)c1ccccc1F [Compound 2-4, {3-Methyl-5-[4′-(2H-tetrazol-5-ylmethyl)-biphenyl-4-yl]-isoxazol-4-yl}-carbamic acid (R)-1-(2-fluoro-phenyl)-ethyl ester]
12 | < 300 | 1000 to 50000 | Cc1noc(-c2ccc(-c3ccc(Cc4nn[nH]n4)cc3)cc2)c1NC(=O)O[C@H](C)c1ccccc1Cl [Compound 2-5, {3-Methyl-5-[4′-(2H-tetrazol-5-ylmethyl)-biphenyl-4-yl]-isoxazol-4-yl}-carbamic acid (R)-1-(2-chloro-phenyl)-ethyl ester]
13 | < 300 | > 50000 | Cc1noc(-c2cnc(-c3ccc(CC(=O)O)cc3)s2)c1NC(=O)O[C@H](C)c1ccccc1F [Compound 3-4, [4-(5-{4-[(R)-1-(2-Fluoro-phenyl)-ethoxycarbonylamino]-3-methyl-isoxazol-5-yl}-thiazol-2-yl)-phenyl]-acetic acid]

Row | SMILES | IC50 (human LPA1) [nM] | IC50 (human LPA3) [nM]
14 | Cc1noc(-c2ccc(-c3ccc(CC(=O)O)cc3)c(Cl)c2)c1NC(=O)O[C@H](C)c1ccccc1Cl [Compound 1-131, (2′-Chloro-4′-{4-[(R)-1-(2-chloro-phenyl)-ethoxycarbonylamino]-3-methyl-isoxazol-5-yl}-biphenyl-4-yl)-acetic acid] | < 300 | 1000 to 50000
